# Assay results as given in US6414150B1, “4,5-disubstituted imidazole compounds” (SmithKline Beecham Corporation, priority 1996, dated 2002).
# Tested on: human PGHS-2 protein expression in LPS stimulated human monocytes
# Assay: Prostaglandin Endoperoxide Synthase-2 (PGHS-2) assay
# Type: cell-based
# Conditions: LPS 50 ng/well overnight, Western blot
# Method: The following assay describes a method for determining the inhibitory effects of compounds of Formula (I) on human PGHS-2 protein expression in LPS stimulated human monocytes.
# Method: Human peripheral blood monocytes were isolated from buffy coats by centrifugation through Ficoll and Percoll gradients. Cells were seeded at 2×10^6/well in 24 well plates and allowed to adhere for 1 hour in RPMI supplemented with 1% human AB serum, 20 mM L-glutamine, Penicillin-Streptomycin and 10 mM HEPES. Compounds were added at various concentrations and incubated at 37° C. for 10 minutes. LPS was added at 50 ng/well (to induce enzyme expression) and incubated overnight at 37° C. The supernatant was removed and cells washed once in cold PBS. The cells were lysed in […] of cold lysis buffer(50 mM Tris/HCl pH 7.5, 150 mM NaCl, 1% NP40, 0.5% sodium deoxycholate, 0.1% SDS, 300 ug/ml DNAse, 0.1% TRITON X-100, 1 mM PMSF, 1 mM leupeptin, 1 mM pepstatin). The lysate was centrifuged (10,000×g for 10 min. at 4° C.) to remove debris and the soluble fraction was subjected to SDS PAGE. analysis (12% gel). Protein separated on the gel were transferred onto nitrocellulose membrane by electrophoretic means for 2 hours at 60 volts. The membrane was pretreated for one hour in PBS/0.1% Tween 20 with 5% non-fat dry milk. After washing 3 times in PBS/Tween buffer, the membrane was incubated with a 1:2000 dilution of a monospecific antiserum to PGHS-2 or a 1:1000 dilution of an antiserum to PGHs-1 in PBS/Tween with 1% BSA for one hour with continuous shaking. The membrane was washed 3× in PBS/Tween and then incubated with a 1:3000 dilution of horseradish peroxidase conjugated donkey antiserum to rabbit Ig (Amersham) in PBS/Tween with 1% BSA for one hour with continuous shaking. The membrane was then washed 3× in PBS/Tween and the ECL immunodetection system (Amersham) was used to detect the level of expression of prostaglandin endoperoxide synthases-2.
row,SMILES,inhibition of LPS induced PGHS-2 protein expression
1,"Fc1ccc(-c2nc3n(c2-c2ccncc2)CCS3)cc1 [6-(4-Fluoro-phenyl)-2,3-dihydro-5-(4-pyridinyl)imidazo[2,1-b]thiazole]",active
2,C[C@@H]1C[C@H]2[C@@H]3CCC4=CC(=O)C=C[C@]4(C)[C@@]3(F)[C@@H](O)C[C@]2(C)[C@@]1(O)C(=O)CO [Dexamethasone],active

# Same assay, conditions: tested up to 10 uM
row,SMILES,inhibition of LPS induced PGHS-2 protein expression
1,"C[S+]([O-])c1ccc(-c2nc3n(c2-c2ccncc2)CCC3)cc1 (stereo not drawn) [2-(4-Methylsulfinylphenyl)-3-(4-pyridyl)-6,7-dihydro-(5H)-pyrrolo[1,2-a]imidazole]",inactive
2,CC(Cc1ccc(O)c(O)c1)C(C)Cc1ccc(O)c(O)c1 (stereo not drawn) [NDGA],inactive
3,O=C1CCN(c2ccccc2)N1 [phenidone],inactive
4,COc1ccc(C2CNC(=O)C2)cc1OC1CCCC1 (stereo not drawn) [rolipram],inactive
